Test results from ChEMBL document CHEMBL1137686, “Synthesis and anticonvulsant activity of new N-[(4-arylpiperazin-1-yl)-alkyl] derivatives of 3-phenyl-pyrrolidine-2,5-dione” (Eur J Med Chem, 2009).
Activity calls are given as the source filed them. The calls are words filed in the database; no cut-off is given here.

Legend:
Mus musculus [1] = test: Neurotoxicity in ip dosed CF1 albino mouse assessed as ability to maintain equilibrium for 1 min on […] after 0.5 hrs by rotarod test; format: toxicity, organism-based; settings: in vivo
Mus musculus [2] = test: Neurotoxicity in ip dosed CF1 albino mouse assessed as ability to maintain equilibrium for 1 min on […] after 4 hrs by rotarod test; format: toxicity, organism-based; settings: in vivo
Mus musculus [3] = test: Anticonvulsant activity in ip dosed CF1 albino mouse assessed as inhibition of maximal electroshock-induced seizures after 4 hrs; format: functional
Mus musculus [4] = test: Anticonvulsant activity in ip dosed CF1 albino mouse assessed as inhibition of maximal electroshock-induced seizures after 0.5 hrs; format: functional
Mus musculus [5] = test: Neurotoxicity in CF1 albino mouse assessed as ability to grasp rotarod at 300 mg/kg, ip after 0.5 hrs by rotarod test; format: toxicity, organism-based; set-up: dose 300 mg/kg, route intraperitoneal; settings: in vivo
Mus musculus [6] = test: Neurotoxicity in CF1 albino mouse assessed as ability to maintain equilibrium for 1 min on […] at 300 mg/kg, ip after 4 hrs by rotarod test; format: toxicity, organism-based; set-up: dose 300 mg/kg, route intraperitoneal; settings: in vivo
Mus musculus [7] = test: Anticonvulsant activity in CF1 albino mouse assessed as inhibition of maximal electroshock-induced seizures at 300 mg/kg, ip after 4 hrs; format: functional, organism-based; set-up: dose 300 mg/kg
Mus musculus [8] = test: Neurotoxicity in CF1 albino mouse assessed as ability to maintain equilibrium for 1 min on […] at 300 mg/kg, ip after 0.5 hrs by rotarod test; format: toxicity, organism-based; set-up: dose 300 mg/kg, route intraperitoneal; settings: in vivo
Mus musculus [9] = test: Anticonvulsant activity in CF1 albino mouse assessed as inhibition of maximal electroshock-induced seizures at 300 mg/kg, ip after 0.5 hrs; format: functional, organism-based; set-up: dose 300 mg/kg
Rattus norvegicus [10] = test: Anticonvulsant activity in po dosed rat assessed as inhibition of subcutaneous pentylenetetrazole-induced seizures; format: functional
Mus musculus [11] = test: Anticonvulsant activity in CF1 albino mouse assessed as protection against maximal electroshock-induced seizures at 30 mg/kg, po after 4 hrs; format: functional
Rattus norvegicus [12] = test: Anticonvulsant activity against maximal electroshock-induced seizures in po dosed rat assessed as time to peak effect; format: functional
Mus musculus [13] = test: Anticonvulsant activity in CF1 albino mouse assessed as protection against maximal electroshock-induced seizures at 30 mg/kg, po after 0.25 hrs; format: functional
[14] = Neurotoxicity in po dosed rat assessed as ability to maintain equilibrium for 1 min on […] by rotarod test; format: toxicity, organism-based; settings: in vivo
Mus musculus [15] = test: Anticonvulsant activity in CF1 albino mouse assessed as protection against maximal electroshock-induced seizures at 30 mg/kg, po after 0.5 hrs; format: functional
Rattus norvegicus [16] = organism: Rattus norvegicus; test: Protective index, ratio of TD50 for neurotoxicity in rat to ED50 for inhibition of maximal electroshock-induced seizures in rat; format: functional
Mus musculus [17] = test: Neurotoxicity in CF1 albino mouse assessed as motor impairment at 30 mg/kg, po after 0.5 hrs by rotarod test; format: toxicity, organism-based; set-up: dose 30 mg/kg, route oral; settings: in vivo
Mus musculus [18] = test: Neurotoxicity in CF1 albino mouse assessed as motor impairment at 30 mg/kg, po after 0.25 hrs by rotarod test; format: toxicity, organism-based; set-up: dose 30 mg/kg, route oral; settings: in vivo
Mus musculus [19] = test: Anticonvulsant activity in CF1 albino mouse assessed as protection against maximal electroshock-induced seizures at 30 mg/kg, po after 2 hrs; format: functional
Mus musculus [20] = test: Neurotoxicity in CF1 albino mouse assessed as motor impairment at 30 mg/kg, po after 2 hrs by rotarod test; format: toxicity, organism-based; set-up: dose 30 mg/kg, route oral; settings: in vivo
Mus musculus [21] = test: Neurotoxicity in CF1 albino mouse assessed as motor impairment at 30 mg/kg, po after 4 hrs by rotarod test; format: toxicity, organism-based; set-up: dose 30 mg/kg, route oral; settings: in vivo
Mus musculus [22] = test: Neurotoxicity in CF1 albino mouse assessed as motor impairment at 30 mg/kg, po after 1 hr by rotarod test; format: toxicity, organism-based; set-up: dose 30 mg/kg, route oral; settings: in vivo
Mus musculus [23] = test: Anticonvulsant activity in CF1 albino mouse assessed as protection against maximal electroshock-induced seizures at 30 mg/kg, po after 1 hr; format: functional
Rattus norvegicus [24] = test: Anticonvulsant activity in po dosed rat assessed as inhibition of maximal electroshock-induced seizures; format: functional
Mus musculus [25] = test: Toxicity in CF1 albino mouse assessed as myoclonic jerks at 100 mg/kg, ip after 4 hrs; format: organism-based; set-up: dose 100 mg/kg, route intraperitoneal; settings: in vivo

Row | SMILES | Activity (Mus musculus [1]) [mg/kg] | Activity (Mus musculus [2]) [mg/kg] | Activity (Mus musculus [3]) [mg/kg] | Activity (Mus musculus [4]) [mg/kg] | Activity (Mus musculus [6]) | Activity (Mus musculus [7]) | Activity (Mus musculus [9]) | Activity (Mus musculus [11]) | Activity (Mus musculus [13]) | Activity (Mus musculus [15]) | Activity (Mus musculus [17]) | Activity (Mus musculus [18]) | Activity (Mus musculus [19]) | Activity (Mus musculus [20]) | Activity (Mus musculus [21]) | Activity (Mus musculus [22]) | Activity (Mus musculus [23]) | further results
1 | O=C1CC(c2ccccc2C(F)(F)F)C(=O)N1CCCN1CCN(c2cccc(Cl)c2)CC1 (stereo not given) | 100 | 300 | 100 | 100 | – | – | – | – | – | – | – | – | – | – | – | – | – | –
2 | O=C1CC(c2ccccc2C(F)(F)F)C(=O)N1CCCN1CCN(c2ccccc2)CC1 (stereo not given) | 300 | – | – | 300 | Non-toxic | inactive | – | – | – | – | – | – | – | – | – | – | – | Activity (Mus musculus [5]): Toxic
3 | Cc1ccccc1C1CC(=O)N(CN2CCN(c3cccc(Cl)c3)CC2)C1=O (stereo not given) | – | – | – | – | Non-toxic | inactive | inactive | – | – | – | – | – | – | – | – | – | – | Activity (Mus musculus [8]): Non-toxic
4 | COc1ccccc1N1CCN(CCCN2C(=O)CC(c3ccccc3C(F)(F)F)C2=O)CC1 (stereo not given) | 100 | 300 | – | – | – | inactive | inactive | – | – | – | – | – | – | – | – | – | – | –
5 | O=C1CC(c2ccccc2C(F)(F)F)C(=O)N1CN1CCN(c2ccccc2)CC1 (stereo not given) | 300 | – | 30 | – | Non-toxic | – | inactive | 75% | 25% | inactive | Non-toxic | Non-toxic | 50% | Non-toxic | Non-toxic | Non-toxic | 25% | ED50 (Rattus norvegicus [10]): > 250 mg/kg; Time (Rattus norvegicus [12]): 8 h; TD50 at 1 min [14]: > 500 mg/kg; Ratio TD50/ED50 (Rattus norvegicus [16]): >24.1; ED50 (Rattus norvegicus [24]): 20.8 mg/kg
6 | O=C1CC(c2ccccc2C(F)(F)F)C(=O)N1CCN1CCN(c2cccc(Cl)c2)CC1 (stereo not given) | – | – | 100 | – | Non-toxic | – | inactive | inactive | inactive | inactive | Non-toxic | Non-toxic | inactive | Non-toxic | Non-toxic | Non-toxic | inactive | Activity (Mus musculus [8]): Non-toxic
7 | O=C1CC(c2ccccc2C(F)(F)F)C(=O)N1CN1CCN(c2cccc(Cl)c2)CC1 (stereo not given) | 100 | 100 | 100 | – | – | – | inactive | 100% | inactive | 25% | Non-toxic | Non-toxic | 100% | Non-toxic | Non-toxic | Non-toxic | 50% | –
8 | Cc1ccccc1C1CC(=O)N(CCCN2CCN(c3cccc(Cl)c3)CC2)C1=O (stereo not given) | 300 | – | 100 | 300 | Non-toxic | – | – | inactive | inactive | inactive | Non-toxic | Non-toxic | 25% | Non-toxic | Non-toxic | Non-toxic | inactive | –
9 | Cc1ccccc1C1CC(=O)N(CCN2CCN(c3ccccc3F)CC2)C1=O (stereo not given) | 300 | – | 300 | – | Non-toxic | – | inactive | – | – | – | – | – | – | – | – | – | – | –
10 | COc1ccccc1N1CCN(CN2C(=O)CC(c3ccccc3C)C2=O)CC1.Cl (stereo not given) | 100 | 300 | – | 300 | – | inactive | – | – | – | – | – | – | – | – | – | – | – | Activity (Mus musculus [25]): Toxic
11 | Cc1ccccc1C1CC(=O)N(CN2CCN(c3ccccc3)CC2)C1=O (stereo not given) | 100 | 300 | 300 | – | – | – | inactive | – | – | – | – | – | – | – | – | – | – | –
12 | O=C1CC(c2ccccc2C(F)(F)F)C(=O)N1CCN1CCN(c2ccccc2F)CC1 (stereo not given) | – | – | – | – | Non-toxic | inactive | inactive | – | – | – | – | – | – | – | – | – | – | Activity (Mus musculus [8]): Non-toxic
